Data as given in US12059400B2, “Medical compound” (VERA SALUS RICERCA S.R.L., priority 2017, dated 2024).
pIC50: −log10 of the molar value.

Key:
Format in all cases: cell-based
[1] = tested on: human colon carcinoma cells (HCT116); test: Cell proliferation, crystal violet method; conditions: for pIC50: Homo sapiens, HCT-116, crystal violet, spectrophotometer, read-out: IC50 anti-proliferative effect, CRC (HCT116)
Protocol: (§1) The compound according to the invention, and in particular the synthetic quercetin derivatives described and illustrated herein were investigated in vitro by using human tumour cells and assessing their impact on the tumour proliferative capacity, with regard to the tumours described above. In particular, the following human tumour cell lines were assessed experimentally: 1) HCT116, colon adenocarcinoma cells; 2) H1299, lung adenocarcinoma cells; 3) A375, melanoma cells, and 4) A431, squamous skin cell carcinoma; 5) 786-0, renal carcinoma cells; 6) PC3, prostate carcinoma cells; 7) BT549, mammary carcinoma cells; 8) CAL27, tongue carcinoma cells (belonging to the head-and-neck carcinomas); 9) HepG2, hepatocellular carcinoma cells; 10) PANC-1, pancreas carcinoma cells; 11) T24, bladder carcinoma cells; 12) OVCAR-3, ovarian carcinoma cells. In addition, a normal human cell line, WS1 (skin fibroblasts) was also treated with the novel synthetic compounds.
(§2) Cell proliferation was quantified by the crystal violet method with a spectrophotometer. In short, after acquiring serial images (0, 24 and 48 hrs) with the EVOS XL Cell Imaging System microscope (Thermo Fisher Scientific), the cells imaged at 48 hrs were fixed with paraformaldehyde (4%) and stained with Crystal Violet (1%). Then, the specific absorbance (λ=590 nm) at 48 hrs was measured with a spectrophotometer (Infinite®200 PRO, Tecan). Data analysis was carried out by using ad-hoc Excel files for graphical representation and statistical processing (t-test). Moreover, the results obtained with Crystal Violet were confirmed by using another cell proliferation assessment method based on the real time cellular analyzer XCELLigence RTCA DP (ACEA Biosciences, Inc.). This tool allows cell growth to be monitored from electrical impedance-derived quantitative values (the so-called Cell Index) measured by tiny electrodes located at the base of the culture wells. Proliferation is monitored for several days (5-7) by setting a Cell Index per minute measure on the instrument. The data are analysed by processing various parameters calculated by the dedicated software, such as the cell duplication time, the slope and the Max Cell Index.
(§3) Cell proliferation was quantitated spectrophotometrically by the crystal violet method.

[2] = tested on: human melanoma cells (A375); test: Cell proliferation, crystal violet method; conditions: for pIC50: Homo sapiens, A-375, crystal violet, spectrophotometer, read-out: IC50 anti-proliferative effect, Melanoma (A375)
Protocol: as §1, §2, §3

[3] = tested on: human ovarian carcinoma cells (OVCAR-3); test: Cell proliferation, crystal violet method; conditions: for OVCAR-3 cell growth vs vehicle control: 60 μM, FIG. 11a, 11b; for pIC50: Homo sapiens, OVCAR-3, crystal violet, spectrophotometer, read-out: IC50 anti-proliferative effect, OCC - (OVCAR)
Protocol: as §1, §2, §3

[4] = tested on: human colon carcinoma cells (HCT116); test: Intracellular ROS levels, DCFH2-DA probe; conditions: 2 hrs of treatment; at the respective anti-proliferative IC50s; DCF fluorescence in A.U.; FIG. 22 left
Protocol: Intracellular ROS levels were measured in tumour cells by using the probe 2,7-dichlorodihydrofluorescein diacetate (DCFH2-DA) and a fluorescence spectrophotometer. DCFH2-DA diffuses readily through the cell membrane into the cytosolic space of the cell where it is hydrolyzed by intracellular esterases into the non-permeable DCFH2 product. DCFH2 oxidation by intracellular ROS (mainly H2O2, HO·, ROO·, NO· and ONOO) results in the production of intracellular fluorescent DCF, whose concentration is directly proportional to the levels of ROS in the cell. […] All the experiments were repeated at least 3 times. Data analysis was carried out with GraphPad Prism 6 for graphical representation and statistical processing (1-way ANOVA test).

Row | SMILES | HCT116 cell growth vs vehicle control ([1]; 10 μM and 30 μM, FIG. 15) | pIC50 [1] | A375 cell growth vs vehicle control ([2]; 10 μM and 30 μM, FIG. 14) | pIC50 [2] | HCT116 cell growth vs vehicle control ([1]; 30 μM and 100 μM, FIG. 16) | A375 cell growth vs vehicle control ([2]; 30 μM and 100 μM, FIG. 16) | HCT116 cell growth vs vehicle control ([1]; 100 μM, FIG. 3a, 3b, 13a, 13b) | OVCAR-3 cell growth vs vehicle control [3] | pIC50 [3] | intracellular ROS levels in HCT116 cells [4] | proliferation of melanoma cells (A375) vs vehicle control ([2]; concentration not given, FIG. 12 for Compound 26)
1 | O=C(CCCOc1c(-c2ccc(O)c(O)c2)oc2cc(O)cc(O)c2c1=O)NCC1CCC(CNC(=O)CCCOc2c(-c3ccc(O)c(O)c3)oc3cc(O)cc(O)c3c2=O)CC1 (stereo not shown) [Compound 15d] | significantly inhibited | 4.92 | significantly inhibited | 5.15 | – | – | – | – | – | – | –
2 | CCCCCCCCCCCCCCCC(=O)NCCc1ccc(OCCCC(=O)NCCOCCOc2c(-c3ccc(O)c(O)c3)oc3cc(O)cc(O)c3c2=O)c(OCCCC(=O)NCCOCCOc2c(-c3ccc(O)c(O)c3)oc3cc(O)cc(O)c3c2=O)c1 [Compound 36] | – | 3.95 | – | 4.05 | inhibit | inhibit | – | – | – | – | –
3 | CCCCCCCC/C=C\CCCCCCCC(=O)NCCOCCOc1c(-c2ccc(O)c(O)c2)oc2cc(O)cc(O)c2c1=O [Compound 29c] | significantly inhibited | 5.44 | significantly inhibited | 5.15 | – | – | – | – | – | – | –
4 | O=C(NCCOCCOc1c(-c2ccc(O)c(O)c2)oc2cc(O)cc(O)c2c1=O)C1CC(C(=O)NCCOCCOc2c(-c3ccc(O)c(O)c3)oc3cc(O)cc(O)c3c2=O)CC(C(=O)NCCOCCOc2c(-c3ccc(O)c(O)c3)oc3cc(O)cc(O)c3c2=O)C1 (stereo not shown) [Compound 22b] | – | 3.39 | – | < 3.00 | – | – | – | – | – | – | –
5 | NCCOCCOc1c(-c2ccc(O)c(O)c2)oc2cc(O)cc(O)c2c1=O [Compound 27] | – | 3.42 | – | – | – | – | greater anti-proliferative effects | – | – | – | –
6 | O=C(NCCOCCOc1c(-c2ccc(O)c(O)c2)oc2cc(O)cc(O)c2c1=O)c1ccc(OCCCCCCOc2ccc(C(=O)NCCOCCOc3c(-c4ccc(O)c(O)c4)oc4cc(O)cc(O)c4c3=O)cc2)cc1 [Compound 19d] | significantly inhibited | 6.13 | significantly inhibited | 5.79 | – | – | – | significantly inhibit | 5.30 | – | –
7 | CCCCCCCCCCCCCCCC(=O)NCCOCCOc1c(-c2ccc(O)c(O)c2)oc2cc(O)cc(O)c2c1=O [Compound 29a] | significantly inhibited | 4.80 | significantly inhibited | 5.28 | – | – | – | – | – | – | –
8 | CCCCC/C=C\C/C=C\CCCCCCCC(=O)NCCOCCOc1c(-c2ccc(O)c(O)c2)oc2cc(O)cc(O)c2c1=O [Compound 29d] | significantly inhibited | 5.54 | significantly inhibited | 5.11 | – | – | – | – | – | – | –
9 | O=C(NCCOCCOc1c(-c2ccc(O)c(O)c2)oc2cc(O)cc(O)c2c1=O)c1ccc(-c2ccc(C(=O)NCCOCCOc3c(-c4ccc(O)c(O)c4)oc4cc(O)cc(O)c4c3=O)cc2)cc1 [Compound 19b] | significantly inhibited | 5.26 | significantly inhibited | 5.02 | – | – | – | – | – | significantly raise | –
10 | O=C(CCCC(=O)NCCOCCOc1c(-c2ccc(O)c(O)c2)oc2cc(O)cc(O)c2c1=O)NCCOCCOc1c(-c2ccc(O)c(O)c2)oc2cc(O)cc(O)c2c1=O [Compound 19a] | – | < 3.00 | – | – | – | – | – | – | – | – | –
11 | CCCCC/C=C\C/C=C\C/C=C\C/C=C\CCCC(=O)NCCOCCOc1c(-c2ccc(O)c(O)c2)oc2cc(O)cc(O)c2c1=O [Compound 29e] | significantly inhibited | 5.36 | significantly inhibited | 5.23 | – | – | – | significantly inhibit | 4.79 | – | –
12 | O=C(CCCOc1c(-c2ccc(O)c(O)c2)oc2cc(O)cc(O)c2c1=O)N[C@H]1CCCC[C@H]1NC(=O)CCCOc1c(-c2ccc(O)c(O)c2)oc2cc(O)cc(O)c2c1=O [Compound 15a] | significantly inhibited | 4.88 | significantly inhibited | 4.64 | – | – | – | – | – | – | –
13 | O=C(CCCOc1c(-c2ccc(O)c(O)c2)oc2cc(O)cc(O)c2c1=O)NCc1ccc(CNC(=O)CCCOc2c(-c3ccc(O)c(O)c3)oc3cc(O)cc(O)c3c2=O)cc1 [Compound 15c] | significantly inhibited | 4.80 | significantly inhibited | 4.81 | – | – | – | – | – | – | –
14 | CC/C=C\C/C=C\C/C=C\C/C=C\C/C=C\C/C=C\CCC(=O)NCCOCCOc1c(-c2ccc(O)c(O)c2)oc2cc(O)cc(O)c2c1=O [Compound 29f] | significantly inhibited | 5.51 | significantly inhibited | 5.29 | – | – | – | significantly inhibit | 4.93 | – | –
15 | O=C(CCCOc1c(-c2ccc(O)c(O)c2)oc2cc(O)cc(O)c2c1=O)NCCCOCCOCCOCCCNC(=O)CCCOc1c(-c2ccc(O)c(O)c2)oc2cc(O)cc(O)c2c1=O [Compound 15b] | significantly inhibited | 4.73 | significantly inhibited | 4.61 | – | – | – | – | – | – | –
16 | O=c1c(OCCOCCO)c(-c2ccc(O)c(O)c2)oc2cc(O)cc(O)c12 [Compound 26] | – | 4.09 | – | 4.28 | – | – | significantly inhibits | – | – | – | significantly inhibits
17 | O=C(NCCOCCOc1c(-c2ccc(O)c(O)c2)oc2cc(O)cc(O)c2c1=O)c1ccc(Oc2ccc(C(=O)NCCOCCOc3c(-c4ccc(O)c(O)c4)oc4cc(O)cc(O)c4c3=O)cc2)cc1 [Compound 19c] | significantly inhibited | 5.89 | significantly inhibited | 5.40 | – | – | – | significantly inhibit | 5.13 | – | –
18 | O=C(NCCOCCOc1c(-c2ccc(O)c(O)c2)oc2cc(O)cc(O)c2c1=O)c1cc(C(=O)NCCOCCOc2c(-c3ccc(O)c(O)c3)oc3cc(O)cc(O)c3c2=O)cc(-c2cc(C(=O)NCCOCCOc3c(-c4ccc(O)c(O)c4)oc4cc(O)cc(O)c4c3=O)cc(C(=O)NCCOCCOc3c(-c4ccc(O)c(O)c4)oc4cc(O)cc(O)c4c3=O)c2)c1 [Compound 25a] | – | 3.52 | – | < 3.00 | – | – | – | – | – | – | –
19 | O=C(NCCOCCOc1c(-c2ccc(O)c(O)c2)oc2cc(O)cc(O)c2c1=O)c1cc(C(=O)NCCOCCOc2c(-c3ccc(O)c(O)c3)oc3cc(O)cc(O)c3c2=O)cc(C(=O)NCCOCCOc2c(-c3ccc(O)c(O)c3)oc3cc(O)cc(O)c3c2=O)c1 [Compound 22a] | – | 4.30 | – | 3.87 | inhibit | inhibit | – | – | – | – | –
20 | COc1ccc(-c2ccc(C(=O)NCCOCCOc3c(-c4ccc(O)c(O)c4)oc4cc(O)cc(O)c4c3=O)cc2)cc1 [Compound 29g] | significantly inhibited | 5.23 | significantly inhibited | 5.11 | – | – | – | – | – | – | –
21 | CCCCCCCCCCCCCCCCCCCCCC(=O)NCCOCCOc1c(-c2ccc(O)c(O)c2)oc2cc(O)cc(O)c2c1=O [Compound 29b] | – | < 3.00 | – | < 3.00 | – | – | – | – | – | – | –
